Patent US20240000680A1, “MONO-HYDROXY OR DI-HYDROXY DERIVATIVES OF POLYUNSATURATED FATTY ACIDS, PRODUCTION METHOD THEREFOR, AND USE THEREOF” (KOLON INDUSTRIES, INC., priority 2019, published 2024)
Values joined by “and” are separate entries in the source; they are usually repeats but may differ in a detail not shown here. Identical values can stand only once.

Columns and labels:
Assay type in all cases: cell-based
procollagen = assay: Procollagen synthesis in human dermal fibroblasts (PIP EIA), Example 7; conditions: for Procollagen synthesis (% of control) Average: 24 hours; for Procollagen synthesis (% of control) Average / amount of procollagen (Table 10, single component vs complex composition): untreated control = 100; for amount of procollagen compared to untreated control group: single components, Table 8 concentrations; for amount of procollagen (Table 10, single component vs complex composition): concentration not given in Table 10; for amount of procollagen compared to positive control group (50 μM of retinyl palmitate): at a concentration of 1 μg/ml or more
Source text: Collagen, a major component of the extracellular matrix, is synthesized in the form of a precursor called procollagen. The procollagen is known to be cut and isolated from collagen molecules when a polymerization reaction occurs. By measuring the amount of procollagen, the degree of collagen biosynthesis in the cells may be estimated.
[…] In this connection, the effect of the SPM single component and its complex compositions (compositions 1 to 3) was identified by using a case in which nothing was treated as an untreated control group and a case in which 50 μM of retinyl palmitate was treated as Con(+).

IL-6 [1] = assay: IL-6 expression in UVB-irradiated HaCaT human keratinocytes (ELISA), Example 6; conditions: for IL-6 expression (% of control) Average: UVB +; for IL-6 expression (% of control) Average / expression of IL-6 (Table 7, single component vs complex composition): Con(−) = 100; for reduction of expression of IL-6 compared to Con(−): after UVB irradiation; for expression of IL-6 (Table 7, single component vs complex composition): UVB 20 mJ/cm^2
Method: In order to identify the synergistic anti-inflammation relieving effect of the SPMs complex composition, the complex compositions (Complexes 1 to 3) of 17-HDHA, Resolvin D5, and Protectin DX and each SPM single material were treated with HaCaT cells, which are human keratinocytes to identify changes in IL-6 expression.
Specifically, first, human keratinocytes were aliquoted in a 48-well plate at a concentration of 4×10^4 cells/well and cultured at 5% CO2, 37° C. for 24 hours, and then the medium was removed and the starvation state was maintained with DMEM Serum Free media for 24 hours.
The SPMs complex composition was diluted with DMEM (FBS 2%) to make 0.5, 1, 2, and 5 μg/ml, and then cultured as above and treated with human keratinocytes from which the medium was removed for 1 hour. […] In addition, after collecting the medium, the amount of IL-6 was measured using Human IL-6 DuoSet ELISA (R&D system). The cells adhering to the bottom were washed with DPBS, dissolved with 1N NaOH, and the amount of protein was measured through BCA analysis to measure the amount of IL-6 synthesized per a given protein. In this connection, the IL-6 expression inhibitory effect of the SPMs complex composition of the present invention and each single component was identified by using a case in which nothing was treated as Con(−) and a case in which 10 μM of hydrocortisone was treated as Con(+) after UVB irradiation.

TNF-α [2] = assay: TNF-α expression inhibition in UVB-irradiated human keratinocytes, Example 9; conditions: 10 μM; UVB 160 mJ/cm^2; 24 hours
Method: Specifically, human keratinocytes were aliquoted in a 48-well plate at a concentration of 4×10^4 cells/well and cultured for 24 hours at 5% CO2 and 37° C., then the medium was removed and starvation state was maintained with DMEM Serum Free media for 24 hours.
The composition 2 was diluted with DMEM (2% FBS) to make 0.5, 1, 2, and 5 μg/ml, and then cultured as above and treated with human keratinocytes from which the medium was removed for 1 hour. Then, for TNF-α expression, the medium was exchanged with 250 μl of DPBS (WelGENE), irradiated with 160 mJ/cm^2 of UVB, and then treated with the SPMs again and cultured for 24 hours. In addition, after collecting the medium, the amount of TNF-α was measured using Human TNF-α DuoSet ELISA (R&D system), respectively. The cells adhering to the bottom were washed with DPBS, dissolved with 1N NaOH, and the amount of protein was measured through BCA analysis to measure the amount of TNF-α synthesized per a given protein. In this connection, the effect of the SPMs complex composition was identified by using a case in which nothing was treated as a negative control group and a case in which 10 μM of hydrocortisone was treated as a positive control group.

IL-6 [3] = assay: IL-6 expression inhibition in UVB-irradiated human keratinocytes (ELISA), Example 4-2; conditions: 10 ppm; UVB 160 mJ/cm^2; 24 hours
Method: (§1) Human keratinocytes were aliquoted in a 48-well plate at a concentration of 4×10^4 cells/well and cultured for 24 hours at 5% CO2 and 37° C., then the medium was removed and starvation state was maintained with DMEM Serum Free media for 24 hours.
(§2) The SPM 1 and SPM 2 were diluted with DMEM (2% FBS) to make 1 ppm, and then diluted sequentially to 0.1, 0.01 and 0.001 ppm, and then cultured as above and treated with human keratinocytes from which the medium was removed for 1 hour. Then, for TNF-α or IL-6 expression, the medium was exchanged with 250 μl of DPBS (WelGENE), irradiated with 160 mJ/cm^2 of UVB, and then treated with the SPM 1 and SPM 2 again and cultured for 24 hours. In addition, after collecting the medium, the amount of TNF-α was measured using Human TNF-α DuoSet ELISA (R&D system), and the amount of IL-6 was measured using Human IL-6 DuoSet ELISA (R&D system), respectively. The cells adhering to the bottom were washed with DPBS, dissolved with 1N NaOH, and the amount of protein was measured through BCA analysis to measure the amount of TNF-α or IL-6 synthesized per a given protein. In this connection, the effect of the two reaction products SPM 1 and SPM 2 was identified by using a case in which nothing was treated as a negative control group and a case in which 10 ppm of dexamethasone was treated as a positive control group.

TNF-α [4] = assay: TNF-α expression inhibition in UVB-irradiated human keratinocytes (ELISA), Example 4-2; conditions: 10 ppm; UVB 160 mJ/cm^2; 24 hours
Method: as §1, §2

MMP-1 [5] = assay: Collagenase (MMP-1) expression inhibition in UVB-irradiated human dermal fibroblasts, Example 8; conditions: 20 μM; UVB 100 mJ/cm^2; 48 hours
Method: (§3) MMPs (matrix metalloproteinases) are enzymes with proteolytic activity, and by decomposing proteins constituting the extracellular matrix, they have an important effect on the binding of cells and proteins constituting the extracellular matrix. There are 28 types of MMPs, of which MMP-1 is an enzyme that decomposes collagen. In this example, the expression level of MMP-1 in cells was identified.
Specifically, after culturing human dermal fibroblasts for 24 hours, the medium was exchanged with DPBS (WelGENE) at a concentration of 250 μl/well, and irradiated with 100 mJ/cm^2 of UVB. Then, the composition 2 was treated with DMEM (2% FBS) diluted to a concentration of 0.1, 1, 2, and 5 ppm, respectively, and cultured for 48 hours. After collecting the cultured cell medium, the amount of MMP-1 was measured using a human total MMP-1 ELISA kit (R&D systems, DY901). At this connection, the effect of composition 2 was identified by using a case in which nothing was treated as a negative control group and a case in which 20 μM of retinoic acid was treated as a positive control group.

MMP-1 [6] = assay: Collagenase (MMP-1) expression inhibition in UVB-irradiated human dermal fibroblasts (ELISA), Example 4-4; conditions: 6 ppm; UVB 100 mJ/cm^2; 48 hours
Method: as §3
After culturing human dermal fibroblasts for 24 hours, the medium was exchanged with DPBS (WelGENE) at a concentration of 250 μl/well, and irradiated with 100 mJ/cm^2 of UVB. Then, the SPM 1 and SPM 2 were treated with DMEM (2% FBS) diluted to a concentration of 0.01, 0,1 and 1 ppm, respectively, and cultured for 48 hours. After collecting the cultured cell medium, the amount of MMP-1 was measured using a human total MMP-1 ELISA kit (R&D systems, DY901). At this connection, the effect of the two reaction products SPM 1 and SPM 2 was identified by using a case in which nothing was treated as a negative control group and a case in which 6 ppm of retinoic acid was treated as a positive control group.

loricrin = assay: Loricrin gene expression in human keratinocytes (RT-PCR), Example 12; conditions: 50 ppm
Source text: (§4) Filaggrin, loricrin, and involucrin are known as core proteins constituting the skin barrier. Among them, filaggrin is a protein produced by decomposition of profilagrin, which constitutes keratohyalin granule (KG) present in granule cells of the epidermis, and plays an important role in the skin barrier by aggregating keratin filaments in keratinocytes. Accordingly, it was attempted to identify the skin barrier strengthening effect by identifying he expression of filaggrin and loricrin by the sample.
(§5) Human keratinocytes were cultured in DMEM medium under the same conditions as in Example 9. In order to identify the gene expression related to skin barrier improvement ability, the cultured cells were treated with the SPMs complex composition of the present invention by concentration and cultured, and then RNA was extracted and RT-PCR was performed. The amplified gene was analyzed using the Gel documentation system and Image J program.

filaggrin = assay: Filaggrin gene expression in human keratinocytes (RT-PCR), Example 12; conditions: 50 ppm
Source text: as §4, §5

| Molecule | Procollagen synthesis (% of control) Average (procollagen; 0.01 μg/ml) | Procollagen synthesis (% of control) Average (procollagen; 0.1 μg/ml) | Procollagen synthesis (% of control) Average (procollagen; 1 μg/ml) | Procollagen synthesis (% of control) Average (procollagen; 2 μg/ml) | amount of procollagen compared to untreated control group (procollagen) | amount of procollagen (Table 10, single component vs complex composition) (procollagen) | IL-6 expression (% of control) Average (IL-6 [1]; 0.1 μg/ml) | IL-6 expression (% of control) Average (IL-6 [1]; 1 μg/ml) | IL-6 expression (% of control) Average (IL-6 [1]; 2 μg/ml) | reduction of expression of IL-6 compared to Con(−) (IL-6 [1]; 2 μg/ml) [%] | IL-6 expression (% of control) Average (IL-6 [1]; 5 μg/ml) | expression of IL-6 (Table 7, single component vs complex composition) (IL-6 [1]; 2 μg/ml) | also measured |
| --- | --- | --- | --- | --- | --- | --- | --- | --- | --- | --- | --- | --- | --- |
| CC/C=C\CC(O)/C=C/C=C\C/C=C\C/C=C\C/C=C\CCC(=O)O (racemic) [Composition 17S-HDHA, (±) 17-hydroxy (dihydroxy)-4Z, 7Z, 10Z, 13Z, 15E, 19Z-docosahexaenoic acid] | 212.76 % of control | 237.76 % of control | 235.8 % of control | 255.32 % of control | greater amount of procollagen than the untreated control group | 255.32 | 89.63 % of control | 83 % of control | 89.17 % of control | 10.8 | 81.66 % of control | 89.17 |  |
| C[C@]12CCC(=O)C=C1CC[C@@H]1[C@@H]2[C@@H](O)C[C@@]2(C)[C@H]1CC[C@]2(O)C(=O)CO [Con(+) H.C., hydrocortisone, reference compound] |  |  |  |  |  |  |  |  |  |  |  |  | reduction of UVB-increased expression of TNF-α (TNF-α [2]): about 52%; IL-6 expression (% of control) Average (IL-6 [1]; 10 μM): 31.23 % of control and 42.82 % of control |
| CCCCCCCCCCCCCCCC(=O)OC/C=C(C)/C=C/C=C(C)/C=C/C1=C(C)CCCC1(C)C [Con(+) R.P., retinyl palmitate, reference compound] |  |  |  |  |  |  |  |  |  |  |  |  | Procollagen synthesis (% of control) Average (procollagen; 50 μM): 249.88 % of control and 240.2 % of control |
| CC/C=C\C[C@H](O)/C=C/C=C\C=C\[C@@H](O)C/C=C\C/C=C\CCC(=O)O [PDX, 10S, 17S-dihydroxy-4Z,7Z,11E,13Z,15E,19Z-docosahexaenoic acid] | 237.15 % of control | 244.1 % of control | 251.41 % of control | 254.1 % of control | greater amount of procollagen than the untreated control group | 254.1 | 95.36 % of control | 102.69 % of control | 88.13 % of control | 11.8 | 86.72 % of control | 88.13 | amount of procollagen compared to positive control group (50 μM of retinyl palmitate) (procollagen): greater amount of procollagen was identified compared to the positive control group |
| CC/C=C\C[C@H](O)/C=C/C=C\C/C=C\C=C\[C@@H](O)C/C=C\CCC(=O)O [RvD5, 7S, 17S-dihydroxy-4Z, 8E, 10Z, 13Z, 15E, 19Z-docosahexaenoic acid] | 245.68 % of control | 248 % of control | 249.34 % of control | 255.32 % of control | greater amount of procollagen than the untreated control group | 255.32 | 99.58 % of control | 109.86 % of control | 99.49 % of control | 0.5 | 83.38 % of control | 99.49 | amount of procollagen compared to positive control group (50 μM of retinyl palmitate) (procollagen): greater amount of procollagen was identified compared to the positive control group |
| C[C@@H]1C[C@H]2[C@@H]3CCC4=CC(=O)C=C[C@]4(C)[C@@]3(F)[C@@H](O)C[C@]2(C)[C@@]1(O)C(=O)CO [dexamethasone] |  |  |  |  |  |  |  |  |  |  |  |  | reduction of UVB-increased expression of IL-6 (IL-6 [3]): about 88%; reduction of UVB-increased expression of TNF-α (TNF-α [4]): about 35% |
| CC1=C(/C=C/C(C)=C/C=C/C(C)=C/C(=O)O)C(C)(C)CCC1 [retinoic acid] |  |  |  |  |  |  |  |  |  |  |  |  | reduction of UVB-increased expression of MMP-1 (MMP-1 [5]): about 70%; reduction of UVB-increased expression of MMP-1 (MMP-1 [6]): about 70% |
| hyaluronic acid |  |  |  |  |  |  |  |  |  |  |  |  | increase in expression of loricrin (loricrin): 97.7%; increase in expression of filaggrin (filaggrin): 52.6% |
